The record followed here is patent publication US12516038B2, “Inhibitors of antigen presentation by HLA-DR” (Janssen Pharmaceutica NV, priority 2020, dated 2026).

The structures appear in SMILES notation. Some results are limits rather than exact numbers.

For one experiment, the target named is HLA-DRB1*0401 (Homo sapiens (Human), UniProt P01903+P01911, A100K/A169T/DEL228-266/F76Y/I96L/K127E/L162R/M171V/N62H/P40V/Q125Y/R42H/S133A/S149N/S66Y/V115G/V209L/W38E). The experiment in a line: HLA-DR4 HTRF assay. The format is binding. The conditions noted are these: inhibition of loading of Alexa Fluor 647-labeled Cit-CII peptide onto HLA-DR4 (CLIP cleaved). The gist of the method: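 HLA-DRB1*04:01 construct (α/β fused to human Fc, CLIP pre-cleaved by HRV3C overnight at 4° C) at 3 nM was preincubated 45 min with compound and 1 nM anti-Fc-Tb donor, then 40 nM Alexa647-Cit-CII1236-1249 peptide added. After 90 min at 37° C, the 665/620 nm HTRF ratio gave % inhibition; IC50 by nonlinear regression.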
(In general: TR-FRET usually uses a lanthanide donor and a delayed reading to cut background.)

For experiment [1], the system named is human peripheral blood CD4+ helper T cells. Description: Pan-CD4+ T cell activation (off-target assay). The class given is cell-based. The conditions noted are these: Homo sapiens, T-cell, 24 h, anti-CD3/anti-CD28 stimulation, IL-2 production by ELISA. The source says:
The counter-screening was made through an HLA-DR-independent assay (Pan-CD4+ T cell activation assay), i.e., TCR-stimulated pan-T cell activation assay, and consists of activating T cell directly with agonistic antibody targeting the T cell receptor. The lack of inhibition in the counter-screening assay reflects that the inhibition of T cell activation in the HLA-DR4 restricted peptide-specific T cell based assay with the small molecule inhibitors is due to impaired antigen presentation on HLA-DR to the T cell and not due to a direct inhibition of the T cell function by an off-target mechanism (i.e., independently of targeting HLA-DR).
Pan-CD4+ T Cell Activation
Compounds were tested using a pan-T cell activation assay. In this assay, anti-human CD3 antibody (BD Pharmingen #55336) pre-coated at 1 μg/mL to a 96-well assay plate and 1 μg/ml soluble anti-human CD28 (EBioscience #16-0289-85) antibody were used for activating human peripheral blood CD4+ helper T cells (no HLA-DR-expressing APC were present in this assay format), in the presence of compounds (or vehicle control) for 24 hrs. IL-2 production was measured in the culture supernatant by ELISA (Human IL-2 Duo Set ELISA #DY202 from R&D Systems).
In general terms: An ELISA detects its analyte on a solid surface through an enzyme-linked reagent.

For experiment [2], the system named is HLA-DR4 restricted mouse T cell hybridoma line (DR4.CII.36.8) with HLA-DRB1*04:01-expressing Boleth cells. Description: HLA-DR4-restricted peptide-specific T cell-based assay (hybridoma assay). Particulars: Mus musculus, T-cell, 6 h, inhibition of IL-2 production, CII259-273 peptide presented by Boleth cells. The gist of the method:
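IC50 values derive from 4-parameter logistic fits of IL-2 AlphaLISA signal over 8-point duplicate titrations. Compound and HLA-DRB1*04:01 Boleth APCs were preincubated 1 h, 37° C., before adding CII259-273-restricted DR4.CII.36.8 hybridoma cells with peptide for 6 h at 37° C., in DMEM/1% FCS.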

As a reminder, the IC50 is the concentration at which inhibition is half-maximal.

Turning to `O=C1CCOc2cc(OC(c3ccncc3)c3cccc(F)c3)ccc21` (racemic) [Example 2, (R,S)-7-((3-Fluorophenyl)(pyridin-4-yl)methoxy)chroman-4-one], the IC50 against HLA-DRB1*0401 is 1 µM; in experiment [1], above 15 µM; in experiment [2], 2.8 µM.

Turning to `O=C1CCOc2cc(OC(c3ccncc3)c3ccc(F)cc3)ccc21` (racemic) [Example 3, (R,S)-7-((4-Fluorophenyl)(pyridin-4-yl)methoxy)chroman-4-one], the IC50 against HLA-DRB1*0401 was 0.99 µM; in experiment [1] it was above 15 µM; in experiment [2], 3.7 µM.

With `NC(=O)c1ccc(C(Oc2ccc3c(c2)OCCC3=O)c2ccncc2)cc1` (racemic) [Example 11, (R,S)-4-(((4-Oxochroman-7-yl)oxy)(pyridin-4-yl)methyl)benzamide], the values for the IC50 (at HLA-DRB1*0401; in experiment [1]; in experiment [2]) were 0.65 µM, above 15 µM and 1.2 µM, respectively.

In the case of `COc1ccc(C(Oc2ccc3c(c2)OCCC3=O)c2ccncc2)cc1` (racemic) [Example 12, (R,S)-7-((4-Methoxyphenyl)(pyridin-4-yl)methoxy)chroman-4-one], the IC50 was 1.2 µM at HLA-DRB1*0401, above 15 µM in experiment [1] and 1.6 µM in experiment [2].

In the case of `COc1ccccc1C(Oc1ccc2c(c1)OCCC2=O)c1ccncc1` (racemic) [Example 14, 7-((2-Methoxyphenyl)(pyridin-4-yl)methoxy)chroman-4-one], the IC50 was 2.4 µM at HLA-DRB1*0401, above 15 µM in experiment [1] and 5 µM in experiment [2].

Regarding `O=C1CCOc2cc(OC(c3ccccc3)c3ccncc3)ccc21` (racemic) [Example 114, (R,S)-7-(Phenyl(pyridin-4-yl)methoxy)chroman-4-one], the IC50 was 3.4 µM against HLA-DRB1*0401, above 10 µM in experiment [1] and 11 µM in experiment [2].

With `O=C1CCOc2cc(OC(c3ccccc3)c3cccnc3)ccc21` (racemic) [Example 115, (R,S)-7-(Phenyl(pyridin-3-yl)methoxy)chroman-4-one], the values for the IC50 (against HLA-DRB1*0401; in experiment [1]; in experiment [2]) were 5 µM, 15 µM and 12 µM, respectively.

Take `CCC1COc2cc(OCc3ccncc3)ccc2C1=O` (racemic) [Example 120, (R,S)-3-Ethyl-7-(pyridin-4-ylmethoxy)chroman-4-one]: the IC50 against HLA-DRB1*0401 is 1.2 µM; in experiment [1] it was above 15 µM; in experiment [2], 5.1 µM.

For the molecule `Cc1c(OC2CCc3cc(C(N)=O)ccc32)ccc2c1OCCC2=O` (racemic) [Example 121, (R,S)-1-((8-Methyl-4-oxochroman-7-yl)oxy)-2,3-dihydro-1H-indene-5-carboxamide], the results for the IC50 (against HLA-DRB1*0401; in experiment [1]; in experiment [2]) were 0.63 µM, above 15 µM and 8.1 µM, respectively.

Turning to `O=C1CCOc2cc(O[C@H](c3ccncc3)c3ccccc3F)ccc21` (single isomer, unassigned) [Example 1a, (*R)-7-((2-Fluorophenyl)(pyridin-4-yl)methoxy)chroman-4-one], the values for the IC50 (at HLA-DRB1*0401; in experiment [1]; in experiment [2]) were 1 µM, above 15 µM and 3.4 µM, respectively.

In the case of `O=C1CCOc2cc(O[C@@H](c3ccncc3)c3ccccc3F)ccc21` (single isomer, unassigned) [Example 1b, (*S)-7-((2-Fluorophenyl)(pyridin-4-yl)methoxy)chroman-4-one], the IC50 was 1.2 µM at HLA-DRB1*0401, 3.1 µM in experiment [1] and 3.1 µM in experiment [2].

Regarding `O=C1CCOc2cc(O[C@H](c3ccncc3)c3cccc(F)c3)ccc21` (single isomer, unassigned) [Example 2a, (*R)-7-((3-Fluorophenyl)(pyridin-4-yl)methoxy)chroman-4-one], the IC50 on HLA-DRB1*0401 is 1.6 µM; in experiment [1], 15 µM; in experiment [2], 1.7 µM.

Turning to `O=C1CCOc2cc(O[C@@H](c3ccncc3)c3cccc(F)c3)ccc21` (single isomer, unassigned) [Example 2b, (*S)-7-((3-Fluorophenyl)(pyridin-4-yl)methoxy)chroman-4-one], the concentration for half-maximal inhibition (IC50) against HLA-DRB1*0401 was 1.8 µM; in experiment [1], above 15 µM; in experiment [2], 3.9 µM.

For `CC[C@@H]1CC(=O)c2ccc(OCc3ccncc3OC)cc2O1` (single isomer, unassigned) [Example 119a, (*R)-2-ethyl-7-((3-methoxypyridin-4-yl)methoxy)chroman-4-one], the values for the IC50 (at HLA-DRB1*0401; in experiment [2]) were 0.54 µM and 13 µM, respectively.

On to `CC[C@H]1CC(=O)c2ccc(OCc3ccncc3OC)cc2O1` (single isomer, unassigned) [Example 119b, (*S)-2-ethyl-7-((3-methoxypyridin-4-yl)methoxy)chroman-4-one], for which the IC50 against HLA-DRB1*0401 is 0.69 µM; in experiment [2], above 15 µM.

As for `Cc1c(O[C@@H]2CCc3cc(C(N)=O)ccc32)ccc2c1OCCC2=O` (single isomer, unassigned) [Example 121a, (*R)-1-((8-methyl-4-oxochroman-7-yl)oxy)-2,3-dihydro-1H-indene-5-carboxamide], the IC50 against HLA-DRB1*0401 was 0.93 µM; in experiment [2], above 15 µM.

`Cc1c(O[C@@H]2CCCc3cc(C#N)ccc32)ccc2c1OCCC2=O` (single isomer, unassigned) [Example 122a, (*R)-5-((8-methyl-4-oxochroman-7-yl)oxy)-5,6,7,8-tetrahydronaphthalene-2-carbonitrile]: the IC50 on HLA-DRB1*0401 stood at 0.54 µM; in experiment [2], 6.3 µM.

For the molecule `Cc1c(O[C@H]2CCCc3cc(C#N)ccc32)ccc2c1OCCC2=O` (single isomer, unassigned) [Example 122b, (*S)-5-((8-methyl-4-oxochroman-7-yl)oxy)-5,6,7,8-tetrahydronaphthalene-2-carbonitrile], the values for the IC50 (on HLA-DRB1*0401; in experiment [2]) were 0.93 µM and 15 µM, respectively.

Regarding `Cc1c(O[C@@H]2CCCc3cc(C(N)=O)ccc32)ccc2c1OCCC2=O` (single isomer, unassigned) [Example 123a, (*R)-5-((8-methyl-4-oxochroman-7-yl)oxy)-5,6,7,8-tetrahydronaphthalene-2-carboxamide], the results for the IC50 (against HLA-DRB1*0401; in experiment [2]) were 0.63 µM and 7.9 µM, respectively.

Turning to `Cc1c(O[C@H]2CCCc3cc(C(N)=O)ccc32)ccc2c1OCCC2=O` (single isomer, unassigned) [Example 123b, (*S)-5-((8-methyl-4-oxochroman-7-yl)oxy)-5,6,7,8-tetrahydronaphthalene-2-carboxamide], the IC50 on HLA-DRB1*0401 is 0.57 µM; in experiment [2], 6.3 µM.

Turning to `Cc1c(O[C@@H]2CCc3cnccc32)ccc2c1OCCC2=O` (single isomer, unassigned) [Example 124a, (*R)-7-((6,7-dihydro-5H-cyclopenta[c]pyridin-5-yl)oxy)-8-methylchroman-4-one], the values for the IC50 (at HLA-DRB1*0401; in experiment [2]) were 0.57 µM and 14 µM, respectively.

Turning to `Cc1c(O[C@H]2CCc3cnccc32)ccc2c1OCCC2=O` (single isomer, unassigned) [Example 124b, (*S)-7-((6,7-dihydro-5H-cyclopenta[c]pyridin-5-yl)oxy)-8-methylchroman-4-one], the figures for the IC50 (against HLA-DRB1*0401; in experiment [2]) were 0.74 µM and 6 µM, respectively.

Regarding `Cc1cc(COc2ccc3c(c2C(C)C)OCCC3=O)cc(C)n1` [Example 117, 7-((2,6-Dimethylpyridin-4-yl)methoxy)-8-isopropylchroman-4-one], the results for the IC50 (at HLA-DRB1*0401; in experiment [2]) were 0.68 µM and 3.1 µM, respectively.
